The values that follow come from patent publication US8389527B2, “Substituted imidazopyridazines useful as kinase inhibitors” (Bristol-Myers Squibb Company, priority 2008, dated 2013).

One test deals with T1, recombinant CK2A1 (Homo sapiens, UniProt P68400).
T1 construct: purchased Invitrogen
The test is described as follows: CK2 kinase assay (CK2A1), [γ-33P]ATP filter-binding. It counts as biochemical. Here is the method: (§1) The effectiveness of compounds of the present invention as inhibitors of protein kinases can be readily tested by assays known to those skilled in the art. For example, in vitro protein kinase assays may be conducted with a relevant purified protein kinase and an appropriate synthetic substrate to determine the inhibitory activities of the compounds. […] Reaction mixtures were incubated at 30° C. for 1 h, and reaction products were captured by binding to phosphocellulose (P81) filter plates. Incorporation of radioactive phosphate into the peptide substrate was determined by liquid scintillation counting. The potency of compounds in inhibiting CK2 is expressed as IC50, defined as the concentrations of compounds required to inhibit the enzymatic activity by 50%.

A further test concerns HCT116. The test is described as follows: Cell proliferation inhibition assay (MTT, CellTiter96). The format is cell-based. As to conditions: Homo sapiens, HCT-116; HCT116 cells, 72 h with compound, MTT readout. As for the experimental part:
B. Cell Proliferation Inhibition Assay
Compounds were evaluated for their ability to inhibit cell proliferation, using an assay that measures mitochondrial metabolic activity, that is directly correlated with cell numbers. Cells were plated at 2000 cells/well in 96-well plates and were cultured for 24 h in RPMI-1640 supplemented with 2% fetal bovine serum, before test compounds were added. Compounds were diluted in culture medium such that the final concentration of dimethyl sulfoxide never exceeded 1%. Following the addition of compounds, the cells were cultured for an additional 72 h before cell viability was determined by measuring the conversion of 3-(4,5-dimethylthiazol-2-yl)-2,5-diphenyltetrazolium bromide (MTT) dye using the CellTiter96 kit (Promega).

The target of the next test is T2, recombinant CK2A2 (Homo sapiens, UniProt P19784).
T2 construct: purchased Upstate Biotechnology
T2 sequence (P19784 whole entry): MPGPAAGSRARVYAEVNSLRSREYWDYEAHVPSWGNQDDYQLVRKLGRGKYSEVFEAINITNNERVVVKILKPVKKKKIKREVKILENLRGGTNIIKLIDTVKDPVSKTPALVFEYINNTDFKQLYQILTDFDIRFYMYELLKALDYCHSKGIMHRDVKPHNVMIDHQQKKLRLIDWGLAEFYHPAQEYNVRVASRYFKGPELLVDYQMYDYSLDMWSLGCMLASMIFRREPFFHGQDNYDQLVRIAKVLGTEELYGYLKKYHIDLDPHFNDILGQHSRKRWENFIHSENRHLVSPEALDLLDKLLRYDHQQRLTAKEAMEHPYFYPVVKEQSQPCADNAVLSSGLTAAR
The test is described as follows: CK2 kinase assay (CK2A2), [γ-33P]ATP filter-binding. It counts as biochemical. Here is the method:
as §1

Setting [1] is: recombinant CK2A1 10 nM, ATP 25 μM, 10 μM peptide substrate, 30° C. 1 h.
Where [2] appears, read: recombinant CK2A2 5 nM, ATP 5 μM, 10 μM peptide substrate, 30° C. 1 h.
Where [3] appears, read: comparison examples of U.S. 2007/038314 (Table 2).

T1 sequence (P68400 whole entry): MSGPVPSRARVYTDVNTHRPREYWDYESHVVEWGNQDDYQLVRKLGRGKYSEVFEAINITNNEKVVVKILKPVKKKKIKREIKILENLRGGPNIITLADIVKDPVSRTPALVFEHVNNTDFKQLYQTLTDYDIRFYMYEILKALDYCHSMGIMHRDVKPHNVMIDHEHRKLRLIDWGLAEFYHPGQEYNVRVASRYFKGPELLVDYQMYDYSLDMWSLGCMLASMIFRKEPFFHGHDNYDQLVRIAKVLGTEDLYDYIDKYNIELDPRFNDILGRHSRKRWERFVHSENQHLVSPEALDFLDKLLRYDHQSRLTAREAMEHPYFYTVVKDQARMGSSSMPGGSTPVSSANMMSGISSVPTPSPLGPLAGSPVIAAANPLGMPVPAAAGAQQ

`NCCCC(=O)N[C@H]1CC[C@H](Nc2cc(NC3CC3)c3ncc(C(=O)Nc4ccnc(F)c4)n3n2)CC1` [Example 143, 6-((trans-4-((4-aminobutanoyl)amino)cyclohexyl)amino)-8-(cyclopropylamino)-N-(2-fluoro-4-pyridinyl)imidazo [1,2-b]pyridazine-3-carboxamide]: the IC50 (commonly the midpoint of a concentration-inhibition curve) was 199 nM at recombinant CK2A1 (setting [1]), 340 nM in the test with HCT116 and 70 nM on recombinant CK2A2 (setting [2]).
For the compound `COCC(=O)N[C@H]1CC[C@H](Nc2cc(NC3CC3)c3ncc(C(=O)Nc4ccnc(Cl)c4)n3n2)CC1` [Example 167, N-(2-chloro-4-pyridinyl)-8-(cyclopropylamino)-6-((trans-4-((methoxyacetyl)amino)cyclohexyl)amino) imidazo[1,2-b]pyridazine-3-carboxamide], the figures for the half-inhibitory concentration (IC50) on recombinant CK2A1 (setting [1]), in the test on HCT116 and at recombinant CK2A2 (setting [2]) were 26.5 nM, greater than 2500 nM and 0.4 nM, respectively.
For `N[C@H]1CC[C@H](Nc2cc(Nc3cccc(N4CCNCC4)n3)c3ncc(C(=O)Nc4ccncc4F)n3n2)CC1` [Example 481, 6-((trans-4-aminocyclohexyl)amino)-N-(3-fluoro-4-pyridinyl)-8-((6-(1-piperazinyl)-2-pyridinyl)amino)imidazo [1,2-b]pyridazine-3-carboxamide], the IC50 at recombinant CK2A1 (setting [1]) is 121 nM; with HCT116, greater than 2500 nM; at recombinant CK2A2 (setting [2]) it was 34 nM.
Consider `CCOc1ccc(Nc2cc(N[C@H]3CC[C@H](N)CC3)nn3ccnc23)cc1` [I(1), reference compound], for which the IC50 at recombinant CK2A1 (setting [3]) is greater than 50000 nM; on recombinant CK2A2 (setting [3]), 10300 nM.
For `O=C(Nc1ccnc(Cl)c1)c1cnc2c(NC3CC3)cc(N[C@H]3CC[C@H](NCCO)CC3)nn12` [Example 531, N-(2-chloro-4-pyridinyl)-8-(cyclopropylamino)-6-((trans-4-((2-hydroxyethyl)amino)cyclohexyl)amino) imidazo[1,2-b]pyridazine-3-carboxamide], the IC50 on recombinant CK2A1 (setting [1]) was 28 nM; with HCT116, 260 nM; at recombinant CK2A2 (setting [2]) it was 3 nM.
Regarding `O=C(Nc1ccnc(F)c1)c1cnc2c(NC3CC3)cc(N[C@H]3CC[C@H](O)CC3)nn12` [Example 13, 8-(cyclopropylamino)-N-(2-fluoro-4-pyridinyl)-6-((trans-4-hydroxycyclohexyl)amino)imidazo[1,2-b]pyridazine-3-carboxamide], the IC50 on recombinant CK2A1 (setting [1]) amounted to 42 nM; with HCT116, 170 nM; on recombinant CK2A2 (setting [2]), 17 nM.
`N[C@H]1CC[C@H](Nc2cc(NC3CC3)c3ncc(C(=O)Nc4ccnc(F)c4)n3n2)CC1` [Example 25C, 6-((trans)-4-aminocyclohexylamino)-8-(cyclopropylamino)-N-(2-fluoropyridin-4-yl)imidazo[1,2-b]pyridazine-3-carboxamide]: the IC50 amounted to 86 nM at recombinant CK2A1 (setting [1]), 170 nM in the test on HCT116 and 11 nM at recombinant CK2A2 (setting [2]).
On to `O=C(Nc1ccnc(Cl)c1)c1cnc2c(NC3CC3)cc(N[C@H]3CC[C@H](N(CCO)CCO)CC3)nn12` [Example 534, 6-((trans-4-(bis(2-hydroxyethyl)amino)cyclohexyl)amino)-N-(2-chloro-4-pyridinyl)-8-(cyclopropylamino)imidazo [1,2-b]pyridazine-3-carboxamide], for which the IC50 at recombinant CK2A1 (setting [1]) stood at 559 nM; in the test on HCT116 it was 1610 nM; on recombinant CK2A2 (setting [2]), 145 nM.
In the case of `N[C@H]1CC[C@H](Nc2cc(Nc3ccccc3)c3ncc(C(=O)Nc4ccncn4)n3n2)CC1` [Example 518, 6-((trans-4-aminocyclohexyl)amino)-8-anilino-N-4-pyrimidinylimidazo[1,2-b] pyridazine-3-carboxamide], the IC50 on recombinant CK2A1 (setting [1]) was 58 nM; with HCT116 it was 170 nM; at recombinant CK2A2 (setting [2]) it was 42 nM.
For `O=C(Nc1ccnc(F)c1)c1cnc2c(NC3CC3)cc(N[C@H]3CC[C@H](NC(=O)C4CCCNC4)CC3)nn12` (stereo partly drawn) [Example 144, 8-(cyclopropylamino)-N-(2-fluoro-4-pyridinyl)-6-((trans-4-((3-piperidinylcarbonyl)amino)cyclohexyl)amino) imidazo[1,2-b]pyridazine-3-carboxamide], the figures for the IC50 on recombinant CK2A1 (setting [1]), in the test with HCT116 and on recombinant CK2A2 (setting [2]) were 183 nM, greater than 2500 nM and 70 nM, respectively.
The corresponding values for `N[C@H]1CC[C@H](Nc2cc(Nc3ccc(CN4CCOCC4)cc3)c3ncc(C(=O)Nc4ccncc4)n3n2)CC1` [Example 414, 6-((trans-4-aminocyclohexyl)amino)-8-((4-(4-morpholinylmethyl)phenyl)amino)-N-4-pyridinylimidazo[1,2-b]pyridazine-3-carboxamide] are 115 nM, 540 nM and 47 nM.
The corresponding values for `COCCNC(=O)N[C@H]1CC[C@H](Nc2cc(NC3CC3)c3ncc(C(=O)Nc4ccnc(Cl)c4)n3n2)CC1` [Example 276, N-(2-chloro-4-pyridinyl)-8-(cyclopropylamino)-6-((trans-4-(((2-methoxyethyl)carbamoyl)amino)cyclohexyl)amino)imidazo [1,2-b]pyridazine-3-carboxamide] are 15.5 nM, 160 nM and 1.1 nM.
Consider `O=C(Nc1ccncc1F)c1cnc2c(NC3CC3)cc(NC3CCCC3)nn12` [Example 333, 6-(cyclopentylamino)-8-(cyclopropylamino)-N-(3-fluoro-4-pyridinyl)imidazo[1,2-b] pyridazine-3-carboxamide], for which the IC50 at recombinant CK2A1 (setting [1]) stood at 26 nM; in the test on HCT116 it was 220 nM; at recombinant CK2A2 (setting [2]), 5 nM.
Consider `NCCN[C@H]1CC[C@H](Nc2cc(NC3CC3)c3ncc(C(=O)Nc4ccnc(F)c4)n3n2)CC1` [Example 526, 6-((trans-4-((2-aminoethyl)amino)cyclohexyl)amino)-8-(cyclopropylamino)-N-(2-fluoro-4-pyridinyl)imidazo [1,2-b]pyridazine-3-carboxamide], for which the IC50 is 153 nM on recombinant CK2A1 (setting [1]), greater than 2500 nM in the test with HCT116 and 61 nM at recombinant CK2A2 (setting [2]).
As to `N[C@H]1CC[C@H](Nc2cc(NC3CC3)c3ncc(C(=O)Nc4ccncc4)n3n2)CC1` [Example 390, 6-((trans-4-aminocyclohexyl)amino)-8-(cyclopropylamino)-N-4-pyridinylimidazo [1,2-b]pyridazine-3-carboxamide], the figures for the IC50 on recombinant CK2A1 (setting [1]), in the test with HCT116 and on recombinant CK2A2 (setting [2]) were 15 nM, 300 nM and 6 nM, respectively.
On to `NCC(=O)N[C@H]1CC[C@H](Nc2cc(NC3CC3)c3ncc(C(=O)Nc4ccncc4F)n3n2)CC1` [Example 124, 8-(cyclopropylamino)-N-(3-fluoro-4-pyridinyl)-6-((trans-4-(glycylamino)cyclohexyl)amino)imidazo[1,2-b]pyridazine-3-carboxamide], for which the values for the IC50 at recombinant CK2A1 (setting [1]), with HCT116 and at recombinant CK2A2 (setting [2]) were 31 nM, 300 nM and 8 nM, respectively.
On to `C[C@H](N)C(=O)N[C@H]1CC[C@H](Nc2cc(NC3CC3)c3ncc(C(=O)Nc4ccnc(F)c4)n3n2)CC1` [Example 134, 6-((trans-4-(L-alanylamino)cyclohexyl)amino)-8-(cyclopropylamino)-N-(2-fluoro-4-pyridinyl)imidazo[1,2-b]pyridazine-3-carboxamide], for which the IC50 was found to be 55 nM at recombinant CK2A1 (setting [1]), 170 nM with HCT116 and 13 nM at recombinant CK2A2 (setting [2]).
Consider `CN[C@H](C)C(=O)N[C@H]1CC[C@H](Nc2cc(NC3CC3)c3ncc(C(=O)Nc4ccnc(Cl)c4)n3n2)CC1` (relative stereo) [Example 154, N-(2-chloro-4-pyridinyl)-8-(cyclopropylamino)-6-((trans-4-((N-methyl-D-alanyl)amino)cyclohexyl)amino)imidazo[1,2-b] pyridazine-3-carboxamide], for which the IC50 on recombinant CK2A1 (setting [1]) was 38.5 nM; in the test on HCT116 it was 210 nM; on recombinant CK2A2 (setting [2]), 0.2 nM.
Take `O=C(Nc1ccnc(Cl)c1)c1cnc2c(NC3CC3)cc(NC3CCSCC3)nn12` [Example 571, N-(2-chloro-4-pyridinyl)-8-(cyclopropylamino)-6-(tetrahydro-2H-thiopyran-4-ylamino)imidazo[1,2-b]pyridazine-3-carboxamide]: the figures for the IC50 on recombinant CK2A1 (setting [1]), in the test on HCT116 and on recombinant CK2A2 (setting [2]) were 428 nM, 890 nM and 97 nM, respectively.
As for `Cc1ccc(Nc2cc(N[C@H]3CC[C@H](N)CC3)nn3ccnc23)nc1` [II(16), reference compound], on recombinant CK2A1 (setting [3]), the IC50 was greater than 50000 nM.
With `COC(=O)CN[C@H]1CC[C@H](Nc2cc(NC3CC3)c3ncc(C(=O)Nc4ccncc4F)n3n2)CC1` [Example 523, methyl N-(trans-4-((8-(cyclopropylamino)-3-((3-fluoro-4-pyridinyl)carbamoyl)imidazo[1,2-b]pyridazin-6-yl)amino)cyclohexyl)glycinate], the IC50 at recombinant CK2A1 (setting [1]) is 57 nM; with HCT116, 388 nM.
In the case of `N[C@H]1CC[C@H](Nc2cc(Nc3ccccc3)c3nccn3n2)CC1` [I(7), reference compound], the IC50 at recombinant CK2A1 (setting [3]) and at recombinant CK2A2 (setting [3]) was greater than 50000 nM throughout.
